Patent EP3925949A1, “AZIDO COMPOUNDS AND METHOD FOR MONITORING ACID CERAMIDASE ACTIVITY IN INTACT CELLS USING THEM” (Consejo Superior de Investigaciones Científicas (CSIC), priority 2020, dated 2021)

Columns and labels:
acid ceramidase (AC) [1] = target: T1, acid ceramidase (AC) (Homo sapiens, UniProt Q13510); experiment: Hydrolysis of RBM5-177 by lysates of AC overexpressing cells, UPLC-HRMS; assay type: biochemical; parameters: expressed in transfected cells; host or cells: A375/+Dox (overexpressing AC); conditions: lysates from A375/+Dox cells, 30 min
T1 sequence (Q13510 143-395 limits assumed): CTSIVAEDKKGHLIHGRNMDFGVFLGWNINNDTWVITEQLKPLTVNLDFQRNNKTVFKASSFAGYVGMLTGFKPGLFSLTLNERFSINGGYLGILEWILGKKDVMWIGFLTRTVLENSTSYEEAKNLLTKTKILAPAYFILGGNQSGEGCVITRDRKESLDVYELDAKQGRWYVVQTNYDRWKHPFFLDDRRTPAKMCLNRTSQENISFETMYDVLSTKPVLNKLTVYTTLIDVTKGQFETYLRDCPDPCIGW
T1 sequence (Q13510 22-142 limits assumed): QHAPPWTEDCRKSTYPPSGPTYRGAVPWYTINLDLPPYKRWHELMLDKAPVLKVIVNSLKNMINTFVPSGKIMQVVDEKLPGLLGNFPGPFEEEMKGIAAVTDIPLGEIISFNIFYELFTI
Description: Cells were suspended in the appropriate volume of a 0.25 M saccharose solution with the proteases inhibitors aprotinin (1 mg/ml), leupeptin (1 mg/mml) and PMSF (100 mM). The suspension was submitted to three cycles of a 5 s sonication (probe) at 10 watts/5 s resting on ice. The cell lysate was centrifuged at 600 g for 5 min. The supernatant was collected and protein concentration was determined as specified below.
Cells were seeded at 5 × 10^5 cells/mL into 6 well plates (1 mL/well) and were allowed to adhere for 24 h. Medium was replaced with fresh medium containing RBM5-177, RBM5-019 or RBM2-37 (5 µM final concentration). After 30 min, medium was removed; cells were washed with 400 µL PBS and harvested with 400 µL Trypsin-EDTA and 600 µL of medium. NC recombinant enzyme, […], MEF5 or microsomes from HeLa T-Rex ACER1-TET-ON and HeLa T-Rex […] activity buffer. Cell pellets were resuspended with 100 µL of H2O and mixed with 750 µL of methanol: chloroform, 2:1. Samples were heated at 48°C overnight and next day, 75 µL of 1 M KOH in methanol were added, followed by 2 h incubation at 37°C. Afterwards, the saponification was neutralised with 75 µL of 1 M acetic acid and solvent was removed using a Speed Vac Savant SPD131 DDA (Thermo Scientific). […]

acid ceramidase (AC) [2] = target: T1, acid ceramidase (AC); experiment: AC activity by flow cytometry with RBM5-177/CO-1 in intact cells; assay type: cell-based; parameters: expressed in transfected cells; host or cells: A375/+Dox and FD/AC (overexpressing AC); A375/-Dox and A549 (endogenous AC)
Description: Cells were seeded at 1 × 10^5 cells/mL into 6 well plates (1 mL/well) and were allowed to adhere for 24 h. Medium was replaced with fresh medium containing Soclac (5 µM final concentration) and incubated for 1 h. After this time, the medium was replaced with RBM5-177, RBM5-019 or RBM2-37 (5 µM final concentration) +/- Soclac and incubated for 20 min. In the experiments with DM120, the compound, Soclac and RBM5-177 were incubated together for 4 h. After probes incubation, the medium was replaced with fresh medium containing CO-1 (1 µM final concentration), and cells were incubated for 10 min. Then cells were washed 3 times with DMEM for 5 min at 37 °C, and finally washed with 400 µL PBS and harvested with 400 µL Trypsin-EDTA and 600 µL of medium. Pellets were resuspended with 200 µL of PBS and stained cells were analyzed by using a Guava EasyCyte™ flow cytometer (Merck Millipore, Billerica, MA) measuring green fluorescence (488/525 nm). Data analysis was performed using the Multicycle AV program (Phoenix Flow Systems, San Diego, CA).

| effect on number of fluorescent counts (acid ceramidase (AC) [2]; A375 cells, SOCLAC 5 µM 1 h pre-incubation (Fig. 5A, 5D)) | effect on number of labelled cells (acid ceramidase (AC) [2]; FD/AC cells, SOCLAC 5 µM 1 h preincubation (Fig. 5C)) | increase in the number of fluorescent counts over FD (acid ceramidase (AC) [2]; FD/AC cells versus AC deficient FD cells, RBM5-177 5 µM 4 h, CO-1) [fold] | SMILES | inhibition of the formation of RBM5-19 from RBM5-177 (acid ceramidase (AC) [1]; SOCLAC 5 µM, 1 h, then RBM5-177 5 µM) | effect on number of labelled cells (acid ceramidase (AC) [2]; A549 cell line, SOCLAC 5 µM 1 h (Fig. 5B, 5E)) | RBM5-19 formation (hydrolysis as substrate) (acid ceramidase (AC) [1]; RBM5-177 5 µM) |
| --- | --- | --- | --- | --- | --- | --- |
| significantly decreased | reduced down to FD levels |  | CCCCCCCCCCCCC/C=C/[C@@H](O)[C@H](CO)NC(=O)CCl [SOCLAC] | totally prevented the formation of RBM5-19 from RBM5-177 | significantly decreasing the number of labelled cells |  |
|  |  | 7 | CCCCCCCC(=O)N[C@@H](C)[C@H](O)CCCCCCCCCCCCN=[N+]=[N-] [RBM5-177, N-((2S,3R)-15-azido-3-hydroxypentadecan-2-yl)octanamide] |  |  | transformed into the free amine only by AC |
